Source: patent US9845292B2 (Max-Planck-Gesellschaft zur Förderung der Wissenschaften …, priority 2013, dated 2017)
Entries after “also recorded” stand apart in the source; their conditions may differ. Read-outs that look alike come from different tables or passages of the source.

Columns and labels:
[1] = target: T1, FKBP51 (Homo sapiens, UniProt Q13451); experiment: Fluorescence polarization binding assay, FK1-domain of FKBP51WT with tracer F4; set-up: Purified FK1-domains of FKBP51WT (4.5 nM) with F4 (3 nM), FKBP52WT (400 nM) with F2 (20 nM); made in house; host or cells: E. coli BL21(DE3)pLysS
T1 sequence (Q13451 42-130 limits assumed): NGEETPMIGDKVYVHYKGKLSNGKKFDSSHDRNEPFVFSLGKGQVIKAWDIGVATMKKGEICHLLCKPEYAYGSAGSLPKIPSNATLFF
In short: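 Competitive fluorescence polarization with tracer F4 and FKBP51 FK1 domain (wild type), compounds titrated by serial dilution from DMSO stock, run in duplicate. IC50 from four-parameter logistic fit; inhibition constants from an exact competitive-binding equation using tracer and inhibitor Kd values.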

[2] = target: T2, FKBP52 (Homo sapiens, UniProt Q02790); experiment: Fluorescence polarization binding assay, FK1-domain of FKBP52WT with tracer F2 (selectivity FKBP51 vs. FKBP52); details: selectivity factor over FKBP52
T2 construct: Purified FK1-domains of FKBP51WT (4.5 nM) with F4 (3 nM), FKBP52WT (400 nM) with F2 (20 nM); implied by Ni-NTA purification) (N); made in house; host or cells: E. coli BL21(DE3)pLysS
T2 sequence (Q02790 50-138 limits assumed): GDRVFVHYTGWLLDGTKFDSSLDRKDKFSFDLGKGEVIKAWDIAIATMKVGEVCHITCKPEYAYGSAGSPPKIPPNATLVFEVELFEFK
In short: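 Compounds titrated against FK1 domain of FKBP52 WT with fluorescent tracer F2, in duplicate; competition curves fitted to four-parameter logistic for IC50. Ki derived from exact competitive-binding equation using tracer Kd; selectivity expressed as Ki(FKBP51)/Ki(FKBP52).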

[3] = tested on: N2a neuroblastoma cells; experiment: N2a cellular assay (neurite outgrowth); assay type: cell-based; details: for effect of high concentrations on neuronal differentiation: FIG. 1A, 1D; for enhancement of neurite outgrowth of N2a cells: compared to unselective FKBP ligand FK506, FIG. 1; for optimal concentration for enhancement of neurite outgrowth: U-shaped dose-dependency, N2a-cells
Protocol: At day one N2a cells were plated into 24-well plates with cover slips (pretreated with polylysine) at a density of 35,000 cells/well and cultured with DMEM (incl. FCS 10% and Pen/Strep 1%) for 24 h. Next, cells were transfected with 80 ng expression plasmids encoding Venus as well as 720 ng pRK5 (mock transfection) in a total volume of 500 μl starvation media containing different concentrations of compounds or DMSO for 36 h (media without FCS; induction of neurite outgrowth). Therefore media was removed and replaced by 400 μl DMEM (empty). Next an equivalent volume of plasmids were given to 50 μl OPTIMEM and incubated for 5 min at RT. Additionally 1.5 μl Lipofectamine 2000 was separately dissolved in 50 μl OPTIMEM. After 5 min both solutions (plasmids and Lipofactamine 2000 containing media) were combined and incubated again for another 20 min. After that 100 μl of this mixture was given to 400 μl media per well. (See also protocol of the provider—Life Technologies).
On the next day cells were washed with PBS and incubated for 30 min with 300 μl PFA (4%) and sucrose (5%) to fix cells. After fixation cells were washed three times, mounted onto microscope slides using 4 μl Vectashield (mounting media) and analyzed by fluorescence microscopy. Each bar represents the mean of the neurite length of 30-50 cells after the indicated treatment (FIGS. 1-2).

[4] = tested on: C57BL/6 mice; experiment: Combined Dex/CRH test (neuroendocrine analysis, plasma CORT); assay type: in vivo; details: 20 mg/kg i.p.; FIG. 2E
Protocol: Briefly, a reference blood sample was collected by an incision in the ventral tail vessel at 1500, three days prior to the actual test (‘untreated’ value). […] The injected volume was 0.3 ml for each injection. At 1500, a second blood sample was drawn from the tail vessel (‘after Dex’ value), immediately followed by an i.p. injection of CRH (0.15 mg/kg). Thirty minutes later, the mice were sacrificed and trunk blood was collected (‘after CRH’ value).

[5] = tested on: C57Bl/6N mice; experiment: Forced swim test (FST); assay type: in vivo; details: FIG. 2D
Protocol: For the forced swim test (FST), male C57Bl/6N mice at the age of 12 weeks were single housed and acclimated to the room for 2 weeks before the experiment. […] The next morning, mice were subjected to a FST to assess stress-coping behavior. Each mouse was put into a 2 l glass beaker for 6 min and analyzed using an automated video-tracking system (Anymaze 4.20, Stoelting, Ill., USA). Time spent immobile (floating) and time spent struggling was scored by an experienced observer, blind to treatment or condition of the animals.

[6] = target: T1, FKBP51; experiment: Fluorescence polarization binding assay, FK1-domain of FKBP51WT with tracer F4; set-up: Purified FK1-domains of FKBP51WT (4.5 nM) with F4 (3 nM), FKBP52WT (400 nM) with F2 (20 nM); implied by Ni-NTA purification) (N); made in house; host or cells: E. coli BL21(DE3)pLysS; details: compounds B01-C25; read-out: Affinity(Ki) for FKBP51
Protocol: The target protein was also diluted in this assay buffer at double the highest concentration required for the final sample. This protein stock was used for a 1:1 serial dilution.
The inventive compound was dissolved in DMSO to reach a 100-times concentrated stock solution. This was used for a 1:1 serial dilution in DMSO.
For FKBP12, −51, and −52 the binding assays were performed in duplicates in the plate format.
The competition curves were analyzed by using SigmaPlot9. Data were fitted to a four parameter logistic curve to deduce the IC50 values. […]
Inhibition constants were measured in a fluorescence polarization binding assay by titrating the compounds.

Question: How did the Ki [1] turn out when `COc1ccc(CC[C@@H](OC(=O)[C@@H]2CCCCN2C(=O)[C@H](c2cc(OC)c(OC)c(OC)c2)C2CCCCC2)c2cccc(OCC(=O)O)c2)cc1OC` [Compound A17, 2-(3-((R)-1-(((S)-1-((S)-2-Cyclohexyl-2-(3,4,5-trimethoxyphenyl)acetyl)piperidine-2-carbonyl)oxy)-3-(3,4-dimethoxyphenyl)propyl)phenoxy)acetic acid] was run?
Answer: < 100 nM

Question: And the “Ki(FKBP51)/Ki(FKBP52)” value ([2]; FKBP52WT (400 nM) with F2 (20 nM), A series)?
Answer: ++++ (>5000 ++++)

Question: And the “rescue of reduced neurite length triggered by Ru26988” value ([3]; 1 μM Ru26988, 10 nM A17, FIG. 2A, 2B)?
Answer: rescues reduced neurite length

Question: What about the “protection of neurite outgrowth from the suppressing effect of high steroid concentrations” value ([3]; 1 μM aldosterone or 1 μM RU26988, FIG. 2A-2C) of the same compound?
Answer: able to protect the neutrite outgrowth of N2a from the suppressing effect of high steroid concentrations

Question: What about the “effect of high concentrations on neuronal differentiation” value [3] of the same compound?
Answer: do not lead to reduction of the neuronal differentiation

Question: And the “rescue of reduction of neurite outgrowth triggered by aldosterone” value ([3]; aldosterone 1 μM, FIG. 2B, 2C)?
Answer: reverts the reduction of neurite outgrowth

Question: And the “enhancement of neurite outgrowth of N2a cells” value [3]?
Answer: stronger enhancement of neurite outgrowth; also recorded: promote neurite outgrowth in N2a cells more potently compared to FK506

Question: `COc1ccc(CC[C@@H](OC(=O)[C@@H]2CCCCN2C(=O)[C@H](c2cc(OC)c(OC)c(OC)c2)C2CCCCC2)c2cccc(OCCN3CCOCC3)c2)cc1OC` [Compound A18] was tested. Which “regulation of stress hormone secretion” value [4] did it give?
Answer: enhances the regulation of stress hormone secretion

Question: And the “floating time in forced swim test” value ([5]; 20.0 mg/kg)?
Answer: reduced floating time

Question: What about the “struggling time in forced swim test” value ([5]; 20.0 mg/kg) of the same compound?
Answer: enhanced struggling time

Question: What about the “stress-coping behavior in the Forced Swim Test” value ([5]; single injection 20.0 mg/kg, 16 hours prior to testing) of the same compound?
Answer: elicited a more active stress-coping behavior

Question: And the “effect of high concentrations on neuronal differentiation” value [3]?
Answer: do not lead to reduction of the neuronal differentiation

Question: What about the “enhancement of neurite outgrowth of N2a cells” value [3] of the same compound?
Answer: stronger enhancement of neurite outgrowth; also recorded: promote neurite outgrowth in N2a cells more potently compared to FK506

Question: Which “concentrations at which the neurite outgrowth stimulating effect is lost” value ([3]; FIG. 1B) does the source give for `C=CC[C@@H]1/C=C(\C)C[C@H](C)C[C@H](OC)[C@H]2O[C@@](O)(C(=O)C(=O)N3CCCC[C@H]3C(=O)O[C@H](/C(C)=C/[C@@H]3CC[C@@H](O)[C@H](OC)C3)[C@H](C)[C@@H](O)CC1=O)[C@H](C)C[C@@H]2OC` [FK506, reference compound] here?
Answer: 300 to 1000 nM

Question: `CC#C[C@]1(O)CC[C@H]2[C@@H]3C=CC4=CC(=O)C=C[C@]4(C)[C@H]3[C@@H](O)C[C@@]21C` [Ru26988, RU26988, reference compound] was tested. Which “optimal concentration for enhancement of neurite outgrowth” value [3] did it give?
Answer: 100 nM

Question: For `COc1cc([C@@H](C(=O)N2CCCC[C@H]2C(=O)OCCCO)C2CCCCC2)cc(OC)c1OC` [Compound C22], which “Ki(FKBP51)/Ki(FKBP52)” value ([2]; compounds B01-C25) is on record?
Answer: +++ (>500 +++)

Question: What about the Ki [6] of the same compound?
Answer: 1000 to 10000 nM

Question: Which “optimal concentration for enhancement of neurite outgrowth” value [3] does the source give for `C[C@]12CCC(=O)C=C1CC[C@@H]1[C@@H]2[C@@H](O)C[C@]2(C=O)[C@@H](C(=O)CO)CC[C@@H]12` [Aldosterone, reference compound] here?
Answer: 100 nM

Question: Which “Ki(FKBP51)/Ki(FKBP52)” value ([2]; compounds B01-C25) does the source give for `COc1cc([C@@H](C(=O)N2CCCC[C@H]2C(=O)OC(C)CO)C2CCCCC2)cc(OC)c1OC` (some centres unmarked) [Compound C25] here?
Answer: ++ (>50 ++)

Question: And the Ki [6]?
Answer: 1000 to 10000 nM
